Patent US10618916B2, “Heterocyclic compounds as immunomodulators” (Incyte Corporation, priority 2018, dated 2020)
Like-named read-outs stand apart in the source and are kept apart here.

Experiments:
[1] = biological target: PD-1/PD-L1 protein/protein interaction (recombinant human PD-L1 and human PD-1) (Homo sapiens (Human), UniProt Q9NZQ7); assay: Homogeneous Time-Resolved Fluorescence (HTRF) PD-1/PD-L1 binding assay
Procedure, shortened: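 Human PD-L1 (19-238, C-His; 10 nM final) and PD-1 (25-167, C-Fc; 3 nM final) preincubated 40 min with inhibitor in PBS pH 7.4, 0.05% Tween-20, 0.1% BSA, 1% DMSO, 25 °C. Eu-anti-human IgG (1 nM) and anti-His-APC (20 nM) added for 60 min; 665/620 nm ratio; IC50 from percent-control curves.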

[2] = system: U2OS/PD-L1 cells and Jurkat-PD-1-SHP cells; assay: Src homology region 2 domain-containing phosphatase (SHP) assay; format: cell-based
Procedure, shortened: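 U2OS/PD-L1 and Jurkat-PD-1-SHP cells (5000 each per well) were co-incubated with compound for 2 h at 37 °C in RPMI1640 with 1% FBS, 0.05% DMSO final. PathHunter chemiluminescence was read after 1 h at room temperature, and IC50 was fitted from percent of DMSO-control activity.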

[3] = system: PD-L1 aAPC/CHO-K1 cells and Jurkat-PD-1-NFAT effector cells; assay: Nuclear factor of activated T-cells (NFAT) assay; format: cell-based
Procedure, shortened: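 CHO-K1 cells expressing PD-L1 aAPC were co-cultured with Jurkat-PD-1-NFAT effector cells in RPMI 1640 with 1% FBS and compound (0.4% DMSO; top concentration 2 μM) for 24 h at 37 °C. Bio-Glo luminescence was read, fold induction normalised to DMSO wells, and EC50 fitted from percent of control compound activity.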

PD-L1 = PD-L1 (Homo sapiens (Human), UniProt Q9NZQ7); assay: PD-L1 whole blood internalization assay; format: cell-based; settings: 24 HR, PD-L1 expression on CD14+ cells, human interferon γ
Chain of PD-L1 (Q9NZQ7 19-290): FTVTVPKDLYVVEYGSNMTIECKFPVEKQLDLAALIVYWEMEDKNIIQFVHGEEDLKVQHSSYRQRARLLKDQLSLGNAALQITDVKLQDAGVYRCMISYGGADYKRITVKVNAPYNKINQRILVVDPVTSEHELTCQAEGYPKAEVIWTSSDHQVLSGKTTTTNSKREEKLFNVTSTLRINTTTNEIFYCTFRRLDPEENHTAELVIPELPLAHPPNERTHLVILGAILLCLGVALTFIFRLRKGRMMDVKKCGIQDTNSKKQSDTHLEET

Chain of PD-1/PD-L1 protein/protein interaction (recombinant human PD-L1 and human PD-1) (Q9NZQ7 19-238): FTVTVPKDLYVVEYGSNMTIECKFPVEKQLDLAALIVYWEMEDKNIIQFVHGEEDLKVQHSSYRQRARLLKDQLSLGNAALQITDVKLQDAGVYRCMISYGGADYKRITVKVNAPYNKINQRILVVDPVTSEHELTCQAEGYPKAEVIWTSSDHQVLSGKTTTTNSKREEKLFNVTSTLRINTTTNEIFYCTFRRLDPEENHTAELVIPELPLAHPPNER

| IC50 [1] [nM] | IC50 ([2]; Homo sapiens, U2OS) [nM] | IC50 (PD-L1) [nM] | IC50 [2] [nM] | Structure (SMILES) | EC50 ([3]; Cricetulus griseus, CHO-K1) [nM] | EC50 [3] [nM] |
| --- | --- | --- | --- | --- | --- | --- |
| ≤ 5 | ≤ 10 | 10 to 100 | – | Cc1c(NC(=O)c2nc3c(n2C)CCN(CCC24CCC(C(=O)O)(CC2)C4)C3)cccc1-c1cccc(NC(=O)c2nc3c(n2C)CCN(C2CCOCC2)C3)c1Cl [Example 38, 4-(2-(2-((2′-chloro-2-methyl-3′-(1-methyl-5-(tetrahydro-2H-pyran-4-yl)-4,5,6,7-tetrahydro-1H-imidazo[4,5-c]pyridine-2-carboxamido)-[1,1′-biphenyl]-3-yl)carbamoyl)-1-methyl-1,4,6,7-tetrahydro-5H-imidazo[4,5-c]pyridin-5-yl)ethyl)bicyclo[2.2.1]heptane-1-carboxylic acid] | 10 to 100 | – |
| ≤ 5 | ≤ 10 | 10 to 100 | – | Cn1c(C(=O)Nc2cccc(-c3cccc(NC(=O)c4nc5c(n4C)CCN(CC4(C(=O)O)CC4)C5)c3Cl)c2Cl)nc2c1CCN(CCC13CCC(C(=O)O)(CC1)C3)C2 [Example 22, 4-(2-(2-((3′-(5-((1-carboxycyclopropyl)methyl)-1-methyl-4,5,6,7-tetrahydro-1H-imidazo[4,5-c]pyridine-2-carboxamido)-2,2′-dichloro-[1,1′-biphenyl]-3-yl)carbamoyl)-1-methyl-1,4,6,7-tetrahydro-5H-imidazo[4,5-c]pyridin-5-yl)ethyl)bicyclo[2.2.1]heptane-1-carboxylic acid] | 10 to 100 | – |
| ≤ 5 | – | 10 to 100 | ≤ 10 | Cn1c(C(=O)Nc2cccc(-c3cccc(NC(=O)c4nc5c(n4C)CCN(C4CCC(O)CC4)C5)c3Cl)c2Cl)nc2c1CCN(CCC13CCC(C(=O)O)(CC1)C3)C2 (single isomer, unassigned) [60 (compound 2), 4-(2-(2-((2,2′-dichloro-3′-(5-(4-hydroxycyclohexyl)-1-methyl-4,5,6,7-tetrahydro-1H-imidazo[4,5-c]pyridine-2-carboxamido)-[1,1′-biphenyl]-3-yl)carbamoyl)-1-methyl-1,4,6,7-tetrahydro-5H-imidazo[4,5-c]pyridin-5-yl)ethyl)bicyclo[2.2.1]heptane-1-carboxylic Acid] | – | ≤ 10 |
| ≤ 5 | ≤ 10 | 10 to 100 | – | Cn1c(C(=O)Nc2cccc(-c3cccc(NC(=O)c4nc5c(n4C)CCN(C4CCC(O)CC4)C5)c3Cl)c2Cl)nc2c1CCN(CCC13CCC(C(=O)O)(CC1)C3)C2 (single isomer, unassigned) [60 (compound 1), 4-(2-(2-((2,2′-dichloro-3′-(5-(4-hydroxycyclohexyl)-1-methyl-4,5,6,7-tetrahydro-1H-imidazo[4,5-c]pyridine-2-carboxamido)-[1,1′-biphenyl]-3-yl)carbamoyl)-1-methyl-1,4,6,7-tetrahydro-5H-imidazo[4,5-c]pyridin-5-yl)ethyl)bicyclo[2.2.1]heptane-1-carboxylic Acid] | ≤ 10 | – |
| ≤ 5 | ≤ 10 | 10 to 100 | – | Cc1c(NC(=O)c2nc3c(n2C)CCN(CCC24CCC(C(=O)O)(CC2)C4)C3)cccc1-c1cccc(NC(=O)c2nc3c(n2C)CCNC3)c1Cl [Example 37, 4-(2-(2-((2′-chloro-2-methyl-3′-(1-methyl-4,5,6,7-tetrahydro-1H-imidazo[4,5-c]pyridine-2-carboxamido)-[1,1′-biphenyl]-3-yl)carbamoyl)-1-methyl-1,4,6,7-tetrahydro-5H-imidazo[4,5-c]pyridin-5-yl)ethyl)bicyclo[2.2.1]heptane-1-carboxylic Acid] | 10 to 100 | – |
| ≤ 5 | ≤ 10 | 10 to 100 | – | Cc1c(NC(=O)c2nc3c(n2C)CCN(CCC24CCC(C(=O)O)(CC2)C4)C3)cccc1-c1cccc(NC(=O)c2nc3c(n2C)CCN(C[C@H](C)O)C3)c1Cl [Example 42, (S)-4-(2-(2-((2′-chloro-3′-(5-(2-hydroxypropyl)-1-methyl-4,5,6,7-tetrahydro-1H-imidazo[4,5-c]pyridine-2-carboxamido)-2-methyl-[1,1′-biphenyl]-3-yl)carbamoyl)-1-methyl-1,4,6,7-tetrahydro-5H-imidazo[4,5-c]pyridin-5-yl)ethyl)bicyclo[2.2.1]heptane-1-carboxylic acid] | 10 to 100 | – |
| ≤ 5 | ≤ 10 | 10 to 100 | – | Cn1c(C(=O)Nc2cccc(-c3cccc(NC(=O)c4nc5c(n4C)CCN(CCC46CCC(C(=O)O)(CC4)C6)C5)c3C#N)c2Cl)nc2c1CCN(CCC13CCC(C(=O)O)(CC1)C3)C2 [Example 51, 4,4′-(((((2-chloro-2′-cyano-[1,1′-biphenyl]-3,3′-diyl)bis(azanediyl))bis(carbonyl))bis(1-methyl-1,4,6,7-tetrahydro-5H-imidazo[4,5-c]pyridine-2,5-diyl))bis(ethane-2,1-diyl))bis(bicyclo[2.2.1]heptane-1-carboxylic acid)] | 10 to 100 | – |
| ≤ 5 | ≤ 10 | 10 to 100 | – | C[C@H](O)CN1CCc2c(nc(C(=O)Nc3cccc(-c4cccc(NC(=O)c5nc6c(n5C)CCN(CCC57CCC(C(=O)O)(CC5)C7)C6)c4Cl)c3Cl)n2C)C1 [Example 14, (S)-4-(2-(2-((2,2′-dichloro-3′-(5-(2-hydroxypropyl)-1-methyl-4,5,6,7-tetrahydro-1H-imidazo[4,5-c]pyridine-2-carboxamido)-[1,1′-biphenyl]-3-yl)carbamoyl)-1-methyl-1,4,6,7-tetrahydro-5H-imidazo[4,5-c]pyridin-5-yl)ethyl)bicyclo[2.2.1]heptane-1-carboxylic acid] | 10 to 100 | – |
| ≤ 5 | ≤ 10 | 10 to 100 | – | C[C@@H](O)CN1CCc2c(nc(C(=O)Nc3cccc(-c4cccc(NC(=O)c5nc6c(n5C)CCN(CCC57CCC(C(=O)O)(CC5)C7)C6)c4Cl)c3Cl)n2C)C1 [Example 13, (R)-4-(2-(2-((2,2′-dichloro-3′-(5-(2-hydroxypropyl)-1-methyl-4,5,6,7-tetrahydro-1H-imidazo[4,5-c]pyridine-2-carboxamido)-[1,1′-biphenyl]-3-yl)carbamoyl)-1-methyl-1,4,6,7-tetrahydro-5H-imidazo[4,5-c]pyridin-5-yl)ethyl)bicyclo[2.2.1]heptane-1-carboxylic Acid] | ≤ 10 | – |
| ≤ 5 | ≤ 10 | 10 to 100 | – | Cc1c(NC(=O)c2nc3c(n2C)CCN(CCC24CCC(C(=O)O)(CC2)C4)C3)cccc1-c1cccc(NC(=O)c2nc3c(n2C)CCN(CCC24CCC(C(=O)O)(CC2)C4)C3)c1Cl [Example 34, 4,4′-(((((2-chloro-2′-methyl-[1,1′-biphenyl]-3,3′-diyl)bis(azanediyl))bis(carbonyl))bis(1-methyl-1,4,6,7-tetrahydro-5H-imidazo[4,5-c]pyridine-2,5-diyl))bis(ethane-2,1-diyl))bis(bicyclo[2.2.1]heptane-1-carboxylic acid)] | 10 to 100 | – |
| ≤ 5 | ≤ 10 | 10 to 100 | – | Cn1c(C(=O)Nc2cccc(-c3cccc(NC(=O)c4nc5c(n4C)CCN(CC(=O)O)C5)c3Cl)c2Cl)nc2c1CCN(CCC13CCC(C(=O)O)(CC1)C3)C2 [Example 19, 4-(2-(2-((3′-(5-(carboxymethyl)-1-methyl-4,5,6,7-tetrahydro-1H-imidazo[4,5-c]pyridine-2-carboxamido)-2,2′-dichloro-[1,1′-biphenyl]-3-yl)carbamoyl)-1-methyl-1,4,6,7-tetrahydro-5H-imidazo[4,5-c]pyridin-5-yl)ethyl)bicyclo[2.2.1]heptane-1-carboxylic acid] | 10 to 100 | – |
| ≤ 5 | ≤ 10 | 10 to 100 | – | Cn1c(C(=O)Nc2cccc(-c3cccc(NC(=O)c4nc5c(n4C)CCN(CCC46CCC(C(=O)O)(CC4)C6)C5)c3Cl)c2Cl)nc2c1CCN(CCCO)C2 [Example 16, 4-(2-(2-((2,2′-dichloro-3′-(5-(3-hydroxypropyl)-1-methyl-4,5,6,7-tetrahydro-1H-imidazo[4,5-c]pyridine-2-carboxamido)-[1,1′-biphenyl]-3-yl)carbamoyl)-1-methyl-1,4,6,7-tetrahydro-5H-imidazo[4,5-c]pyridin-5-yl)ethyl)bicyclo[2.2.l]-heptane-1-carboxylic acid] | ≤ 10 | – |

| Structure (SMILES) | IC50 [1] [nM] | IC50 ([2]; Homo sapiens, U2OS) [nM] | IC50 (PD-L1) [nM] | IC50 [2] [nM] | EC50 ([3]; Cricetulus griseus, CHO-K1) [nM] | EC50 [3] [nM] |
| --- | --- | --- | --- | --- | --- | --- |
| Cn1c(C(=O)Nc2cccc(-c3cccc(NC(=O)c4nc5c(n4C)CCN(CC(C)(C)C(=O)O)C5)c3Cl)c2Cl)nc2c1CCN(CCC13CCC(C(=O)O)(CC1)C3)C2 [Example 21, 4-(2-(2-((3′-(5-(2-carboxy-2-methylpropyl)-1-methyl-4,5,6,7-tetrahydro-1H-imidazo[4,5-c]pyridine-2-carboxamido)-2,2′-dichloro-[1,1′-biphenyl]-3-yl)carbamoyl)-1-methyl-1,4,6,7-tetrahydro-5H-imidazo[4,5-c]pyridin-5-yl)ethyl)bicyclo[2.2.1]heptane-1-carboxylic acid] | ≤ 5 | ≤ 10 | 10 to 100 | – | 10 to 100 | – |
